The values below come from US20190175479A1, “Zinc-Amino Acid-Tripolyphosphate Complexes” (Colgate-Palmolive Company, priority 2017, published 2019).

Holding throughout (format): physicochemical
The nature of data set [1]: Titration of zinc chloride with sodium tripolyphosphate, clarity of solution. The note with it: zinc chloride titrated with sodium tripolyphosphate; solution cloudy until about 1 equivalent of STPP was added. On the procedure:
In the single component titration procedure, a scintillation vial (20 mL) is loaded with 2 mL of a 0.25M zinc nitrate solution and 6 mL of distilled water. The vial is stirred on a magnetic stir plate with an immersed pH electrode. Initial pH is measured. While stirring, the solution is slowly titrated with a 0.75M aqueous solution of arginine in small portions (e.g., 0.01-0.1 mL). In between each addition, the solution is allowed to equilibrate and the pH is recorded. At the conclusion of the experiment, the molar equivalent of added arginine is plotted against the pH. The slope is calculated and plotted as well to highlight the inflection points, which indicate where complex formation takes places.
Substantially the same single-component titration procedure is also performed in a titration of 0.75M zinc chloride with 0.25M sodium tripolyphosphate.

Data set [2] is described as follows: Dilution experiment (precipitation on dilution with water). The following applies: solutions in distilled water, ZLP 200 mg/mL, ZLC 185 mg/mL; diluted with water at ratios from 1:2 to 1:16; ZLC result at dilutions of 1:8 to 1:16. On the procedure: (§1) A solution of ZLP in distilled water at a concentration of 200 mg/mL (23.6 wt % zinc) is prepared. For comparison, a solution of zinc-lysine-chloride complex (ZLC) ([Zn(lysine)2Cl]Cl) is prepared at a concentration of 185 mg/mL. Both solutions are diluted with water at ratios from 1:2 to 1:16.

Data set [3] in a line: Foaming experiment with sodium lauryl sulfate. The note with it: 7.25 wt % complex (0.85 wt % zinc) with 2 wt % sodium lauryl sulfate in distilled water; vial shaken ten times. On the procedure:
A solution of ZLP in distilled water at a concentration of 7.25 wt % (0.85 wt % zinc) containing also 2 wt % of sodium lauryl sulfate is compared to a solution of ZLC and sodium lauryl sulfate at the same concentrations and to a solution of sodium lauryl sulfate. Each solution is sealed in a screw-cap vial and shaken back and forth ten times. […] A similar experiment is conducted using an 1:10 aqueous slurry of the toothpaste formula of Example 1 compared to a control toothpaste having the same composition except for the absence of ZLP (in the control, the 7.25% ZLP is replaced by 0.5 wt % TSPP and 6.75 wt % sorbitol, 70%).

The nature of data set [4]: Polyphosphate experiment (mixing with STPP solution). The following applies: 5 mL of aqueous complex solution mixed with 5 mL of 2 wt % STPP solution. On the procedure: Aqueous solutions of ZLP and ZLC, respectively, are prepared as described above, and 5 mL of each of these solutions is mixed with 5 mL STPP solution at a concentration of 2 wt %. […] Thus, ZLP complex is stable in the presence of additional STPP, whereas other zinc complexes may not be.

A short description of data set [5]: Storage of undiluted solution at room temperature, repeat LC-MS analysis. The following applies: undiluted 200 mg/mL solution stored at room temperature for one month. On the procedure: About 6.0 g of lysine hydrochloride is dissolved in 250 ml distilled water with stirring at room temperature. About 12.0 g sodium tripolyphosphate pentabasic is added with stirring, followed by either 50% aqueous sodium hydroxide solution or concentrated hydrochloric acid solution to adjust the pH to either 5, 6, 7, 8, 9 or 10. To the resulting solution, about 2.68 g of zinc oxide is slowly added. The mixture is then allowed to stir at either room temperature, 50° C. or 80° C., for 2 hours. The reaction is monitored by liquid chromatography-mass spectrometry (LC-MS, using electrospray ionization-tandem mass spectrometer running positive ion mode). LC separation is achieved on Agilent Zorbax SB-Aq column (2.1 mm i.d.×50 mm, 3.5 μm particle size), running 5% water/methanol at 70 μL/minute with 1 μL injection volume.
as §1

On to `O=P([O-])([O-])OP(=O)([O-])OP(=O)([O-])[O-].[Na+].[Na+].[Na+].[Zn+2]` [Na3Zn(P3O10)], for which the “solubility in aqueous titration solution” value in data set [1] is “soluble”.

Regarding `O=P([O-])([O-])OP(=O)([O-])OP(=O)([O-])[O-].[Na+].[Zn+2].[Zn+2]` [NaZn2(P3O10)], the “solubility in aqueous titration solution” value in data set [1] is “poorly soluble”.

In the case of `NCCCCC(N)C(=O)O.NCCCCC(N)C(=O)O.[Cl-].[Cl-].[Zn+2]` (stereo not drawn) [ZLC, [Zn(lysine)2Cl]Cl], in data set [2], the “precipitation upon dilution with water” value is reported as “significant precipitation of insoluble material”. Also, in data set [3], the “foaming of solution with SLS relative to aqueous SLS solution” value was “significantly inhibited”. Further, the “appearance after mixing with STPP solution” value in data set [4] is “produces a white precipitate”.

As for [Zn(C6H14N2O2)(P3O10)Na4]^+Cl^− [ZLP], the “precipitation upon dilution with water” value in data set [2] is “no precipitation occurs at any dilution”. For the same molecule, the “change of LC-MS spectrum after storage” value in data set [5] is “has not changed”. The “foaming of solution with SLS relative to aqueous SLS solution” value in data set [3] is “comparable”. In data set [4], the “appearance after mixing with STPP solution” value is “remains clear and homogenous”.
